The nature of the data set: Solubility of guanine and glyoxal-guanine in water (HPLC of liquid layer). The class given is physicochemical. To be noted: for solubility to water: general statement, no temperature given; for Solubility at each temperature: water, stirred 1 hour. The method, then:
An excess amount of each compound was suspended in water, stirred for 1 hour at each temperature and left for a while. The liquid layer was analyzed with HPLC equipped with a UV detector, under the conditions described below.
Conditions of the HPLC analysis:
Column: Superiorex ODS (manufactured by Shiseido)
Eluent: 0.1 M ammonium dihydrogenphosphate solution: methanol=97:3 (v/v)

Molecules are shown by their SMILES.

With `O=c1c2nc[nH]c2nc2n1C(O)C(O)N2` (stereo not shown) [Glyoxal-guanine, 6,7-dihydro-6,7-dihydroxyimidazo[1,2-a]purine-9(3H)-one], the solubility to water entry is “soluble to water”. The “Solubility at each temperature” value (30° C.) is 200 mg/kg. The “Solubility at each temperature” value (40° C.) is 275 mg/kg. Also, the “Solubility at each temperature” value (50° C.) is on record as 330 mg/kg. For the setting “60° C.”, the “Solubility at each temperature” value is on record as 440 mg/kg.
As for `Nc1nc2nc[nH]c2c(=O)[nH]1` [Guanine, guanine], the solubility to water result is listed as “does not exceed a few ppm”. Also, the “Solubility at each temperature” value (30° C.) is ≤ 2 or mg/kg. Moreover, for the setting “40° C.”, the “Solubility at each temperature” value is recorded as ≤ 2 or mg/kg. Moreover, under “50° C.”, the “Solubility at each temperature” value was found to be 2 mg/kg. Also, under “60° C.”, the “Solubility at each temperature” value is listed as 2 mg/kg.

These data come from US7141397B2, “Method of preparing a guanosine-group compound and an intermediate thereof” (Yuki Gosei Kogyo Co., Ltd., priority 2000, dated 2006).
